Where “and” joins values, the source holds several entries; their conditions need not be identical. Equal entries are not always repeated. Where two headings read alike, the source gives them in different places.
Tests used:
[1] = system: GCV-resistant/PFA-sensitive HCMV strain; assay: microbe, parasite or virus in culture; type: cell-based, human cytomegalovirus (HCMV); settings: for average plaque numbers/microculture: GCV-resistant, PFA/CDV-sensitive strain
Description: (§1) Cocultures of infected and uninfected human foreskin fibroblasts (HFFs) were used for this purpose.
(§2) The implementation of the assay was described for the first time in Prix, et al., “A simplified assay for screening of drug resistance of cell-associated cytomegalovirus strains,” Journal of Clinical Virology (1998) 11:29-37, and Prix, et al., “Comprehensive restriction analysis of the UL97 region allows early detection of ganciclovir-resistant human cytomegalovirus in an immunocompromised child,” Journal of Infectious Diseases (1999) 180:491-495, and is briefly described below.
(§3) HCMV primary isolates on HFF cells in tube culture were passaged on subconfluent monolayers of HFF grown in small cell culture flasks (25 cm^2), and cultured. When an approx. 20-40% cytopathic effect (CPE) had been reached, the cells were washed with phosphate-buffered saline (PBS) and the monolayer was removed by trypsinization. After the trypsin had been inactivated, the pellet was taken up in Eagle's minimal essential medium (MEM)-10% FCS (foetal calf serum) and subjected to mild filtration for the purpose of separating off cell aggregates.
(§4) In parallel, uninfected HFF cells were cultured on 175 cm^2 dishes, washed, trypsinized and, after further purification steps, taken up in MEM-10% FCS.
In order to prepare cocultures, the infected cells were mixed with the uninfected cells in the following manner: 2.5×10^4 uninfected cells/100 μl were mixed, in two different ratios, with 500 and 1000 infected cells/100 μl. In each case 100 μl of each of these dilution steps were pipetted in triplicate into a 96-well microtitre plate. In order to ensure that the cells adhered to the microtitre plate bottom, the cocultures were incubated for at least 4 h before the medium was carefully removed.
The cultures were then incubated for 4 days so as to enable the viruses from the infected single cells to spread in the form of plaque formation by infecting the neighbouring cells.
Following the 4-day incubation, the medium was carefully poured off and the microcultures were permeabilized, and fixed, with 200 μl of ice-cold (−20° C.) methanol. After 20 min, the methanol was removed and the cells were washed twice with PBS.
(§5) The primary antibody (anti-IE1-pp72, E13 clone, Paesel & Lorei, Germany), which is directed against the HCMV immediate early antigen (UL123) of HCMV, was then added. […] After the peroxidase/H2O2 substrate had been added, the HCMV immediate early antigen was detected, under a microscope, in the nuclei of the infected fibroblasts as a result of the in situ brown staining.
6.25 μM of the structurally identical, ethyl-esterified compound N4 were also included.
In this experiment, 500 HCMV-infected HFF cells/microculture were used.
For correctly evaluating the plates, the norm was applied that a plaque had to consist of a group of cells containing at least 10 individual cells in order to be included in the count.

[2] = system: multiresistant HCMV strain (GCV/PFA/CDV-resistant); assay: Modified cell-adapted plaque reduction assay (HFF cocultures), multiresistant HCMV strain; type: cell-based, human cytomegalovirus (HCMV); settings: for average plaque numbers: 1500 HCMV-infected HFF cells/microculture, multiresistant strain
Description: as §1, §2, §3, §4
[…] In each case 100 μl of each of these dilution steps were pipetted in triplicate into a 96-well microtitre plate. In order to ensure that the cells adhered to the microtitre plate bottom, the cocultures were incubated for at least 4 h before the medium was carefully removed. […]
as §5, with “staining. […]” for “staining.”

[3] = system: human prepuce fibroblasts; assay: Cytotoxic effect in vitro towards fibroblasts; type: cell-based
Method: Since N3 was determined to have a cytotoxic effect in vitro towards human prepuce fibroblasts only at concentrations of >125 μM, adequate therapeutic breadth for in vivo use consequently also exists.

HCMV = assay: Preliminary screening of antiviral effect in vitro; type: cell-based, human cytomegalovirus (HCMV); settings: compared with unesterified compound

Compound: 3′-azido-2′,3′-dideoxythymidylyl-(5′→2)-1-O-octadecyl-rac-glycerol-3-(hydroxycarbonyl)-phosphonate [N3]
- average plaque numbers/microculture ([1]; 6.25 μM N3, 500 HCMV-infected HFF cells/microculture): 5.7 and 7.5
- ID50 lower than that for GCV (fold) ([1]; GCV-resistant strain, 1000 infected cells/microculture): approx. 11 ×
- antiviral activity higher than that of PFA (fold) ([1]; GCV-resistant/PFA-sensitive strain, 1000 infected HFF cells/microculture): approx. 40 ×
- average plaque numbers ([2]; N3 (6.25 μM recorded)): 2.3
- concentration with cytotoxic effect in vitro [3]: > 125 µM

Compound: Nc1nc2c(ncn2COC(CO)CO)c(=O)[nH]1 [GCV, 9-[1,3-dihydroxy-2-propoxymethyl]guanine, reference compound]
- average plaque numbers/microculture ([1]; 5 μM GCV, 500 HCMV-infected HFF cells/microculture): 19.5
- IC50 ([1]; Human betaherpesvirus 5, Table 1, GCVres/PFAsens/CDVsens strain, Niz = 1000 infected cells/microculture, read-out: ID50 (95% CI)): 14.3 µM

Compound: O=C(O)P(=O)(O)O.[Na] [PFA, sodium-phosphonoformic acid, reference compound]
- number of plaques ([1]; 300 μM PFA, 500 HCMV-infected HFF cells/microculture, negative control 37.9): 5
- IC50 ([1]; Human betaherpesvirus 5, read-out: ID50 (95% CI)): 64.8 µM
- average plaque numbers ([2]; PFA (300 μM recorded)): 20.5

Compound: ethyl 3′-azido-2′,3′-dideoxythymidylyl-(5′→2)-1-O-octadecyl-rac-glycerol-3-(hydroxycarbonyl)-phosphonate [N4]
- antiviral activity against multiresistant strains ([2]; multiresistant strains): did not exhibit any antiviral activity
- antiviral effect in vitro (HCMV): markedly reduced antiviral effect
